PubChem BioAssay AID330 (DTP/NCI, 2004)
Several values for one entry are separate records, joined by “and”; a condition that tells them apart may be missing. Identical values can stand only once. Toxic doses and inconclusive results are not listed. Rule for the calls: active = survival T/C of 150% or more; inactive = T/C below 125% in these data.

Test system: P388 leukemia ip, CD2F1 mice, survival T/C
Experiment: NCI In Vivo Anticancer Drug Screen. Data for tumor model P388 Leukemia (intraperitoneal) in CD2F1 (CDF1) mice
Conditions: endpoint: median survival time, higher = longer survival
In short: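 Mice carrying the transplanted tumor received test compound or vehicle. Survival was recorded in each group, and the value is the treated-group measurement divided by that of the vehicle-treated control group.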

[1] = dose: 50.0 mg/kg/injection, schedule: Q01DX005 (ip), vehicle: saline with Tween-80
[2] = dose: 100.0 mg/kg/injection, schedule: Q01DX005 (ip), vehicle: saline with Tween-80
[3] = dose: 200.0 mg/kg/injection, schedule: Q01DX005 (ip), vehicle: saline with Tween-80
[4] = dose: 50.0 mg/kg/injection, schedule: Q01DX009 (ip), vehicle: Klucel (hydroxypropylcellulose) (HPC)
[5] = dose: 100.0 mg/kg/injection, schedule: Q01DX009 (ip), vehicle: Klucel (hydroxypropylcellulose) (HPC)
[6] = dose: 100.0 mg/kg/injection, schedule: Q01DX001 (ip), vehicle: saline with Tween-80
[7] = dose: 200.0 mg/kg/injection, schedule: Q01DX001 (ip), vehicle: saline with Tween-80
[8] = dose: 400.0 mg/kg/injection, schedule: Q01DX001 (ip), vehicle: saline with Tween-80
[9] = dose: 60.0 mg/kg/injection, schedule: Q01DX005 (ip), vehicle: saline with Tween-80
[10] = dose: 120.0 mg/kg/injection, schedule: Q01DX005 (ip), vehicle: saline with Tween-80
[11] = dose: 240.0 mg/kg/injection, schedule: Q01DX005 (ip), vehicle: saline with Tween-80

Measured: T/C

COc1nc2ccccc2nc1OC
inactive: dose: 100.0 mg/kg/injection, schedule: Q01DX009 (ip), vehicle: saline with Tween-80 97 % of control | dose: 200.0 mg/kg/injection, schedule: Q01DX009 (ip), vehicle: saline with Tween-80 100 % of control | dose: 400.0 mg/kg/injection, schedule: Q01DX009 (ip), vehicle: saline with Tween-80 97 % of control

CCN(CC)C(=O)c1cccc(COc2ccc(N3C(N)=NC(N)=NC3(C)C)cc2Cl)c1
inactive: dose: 50.0 mg/kg/injection, schedule: Q01DX009 (ip), vehicle: saline sonified 90 % of control | dose: 50.0 mg/kg/injection, schedule: Q04DX003 (ip), vehicle: saline sonified 109 % of control | dose: 100.0 mg/kg/injection, schedule: Q01DX009 (ip), vehicle: saline sonified 109 % of control | dose: 100.0 mg/kg/injection, schedule: Q04DX003 (ip), vehicle: saline sonified 100 % of control

CCCCN(CCCC)C(C)C(O)c1ccc2cc(Br)c3ccccc3c2c1 (stereo not given)
inactive: [1] 100 % of control | [2] 98 % of control | [3] 91 % of control

O=C(CC1CCCC/C1=N\O)NO (stereo not given)
inactive: [4] 100 % of control | dose: 100.0 mg/kg/injection, schedule: Q01DX001 (ip), vehicle: Klucel (hydroxypropylcellulose) (HPC) 106 % of control | [5] 100 % of control | dose: 200.0 mg/kg/injection, schedule: Q01DX001 (ip), vehicle: Klucel (hydroxypropylcellulose) (HPC) 112 % of control | dose: 200.0 mg/kg/injection, schedule: Q01DX009 (ip), vehicle: Klucel (hydroxypropylcellulose) (HPC) 117 % of control | dose: 400.0 mg/kg/injection, schedule: Q01DX001 (ip), vehicle: Klucel (hydroxypropylcellulose) (HPC) 109 % of control

CN(CCO)c1ncnc2c1cnn2C
inactive: dose: 50.0 mg/kg/injection, schedule: Q01DX005 (ip), vehicle: saline 100 % of control | dose: 100.0 mg/kg/injection, schedule: Q01DX005 (ip), vehicle: saline 101 % of control | dose: 200.0 mg/kg/injection, schedule: Q01DX005 (ip), vehicle: saline 100 % of control

NC(CCC(=O)O)C(=O)NC(Cc1c[nH]c2ccccc12)C(=O)O (stereo not given)
inactive: [1] 103 % of control | [2] 96 % of control | [3] 105 % of control

NC(=NCCSCc1ccccc1)NCCc1cnc[nH]1
inactive: [6] 102 % of control | [7] 102 % of control | [8] 98 % of control

C=C(C1OC2OC(C)(C)OC2C1OC)P(=O)(OC(C)C)OC(C)C (stereo not given)
inactive: dose: 100.0 mg/kg/injection, schedule: Q04DX002 (ip), vehicle: saline with Tween-80 98 % of control | dose: 200.0 mg/kg/injection, schedule: Q04DX002 (ip), vehicle: saline with Tween-80 98 % of control

COC(=O)C1C(=O)C(C(=O)OC)C2(C)C(C(=O)OC)C(=O)C(C(=O)OC)C12C (stereo not given)
inactive: dose: 60.0 mg/kg/injection, schedule: Q01DX005 (ip), vehicle: Klucel (hydroxypropylcellulose) (HPC) 103 % of control | dose: 120.0 mg/kg/injection, schedule: Q01DX005 (ip), vehicle: Klucel (hydroxypropylcellulose) (HPC) 102 % of control | dose: 240.0 mg/kg/injection, schedule: Q01DX005 (ip), vehicle: Klucel (hydroxypropylcellulose) (HPC) 103 % of control

CC1(C)S(=O)(=O)OCCOS1(=O)=O
inactive: dose: 3.75 mg/kg/injection, schedule: Q01DX005 (ip), vehicle: Klucel (hydroxypropylcellulose) (HPC) 107 % of control | dose: 7.5 mg/kg/injection, schedule: Q01DX005 (ip), vehicle: Klucel (hydroxypropylcellulose) (HPC) 107 % of control and 111 % of control and 115 % of control | dose: 15.0 mg/kg/injection, schedule: Q01DX005 (ip), vehicle: Klucel (hydroxypropylcellulose) (HPC) 119 % of control

CS(=O)(=O)OCC(Cc1ccccc1)N1C(=O)c2ccccc2C1=O (stereo not given)
inactive: [6] 101 % of control | [7] 100 % of control | [8] 89 % of control

CCc1nn2c(=O)nc(SC)nc2s1
inactive: dose: 12.5 mg/kg/injection, schedule: Q04DX003 (ip), vehicle: saline with Tween-80 102 % of control | dose: 25.0 mg/kg/injection, schedule: Q04DX003 (ip), vehicle: saline with Tween-80 100 % of control | dose: 50.0 mg/kg/injection, schedule: Q04DX003 (ip), vehicle: saline with Tween-80 102 % of control

CCn1ncc(N=O)c1N
inactive: dose: 60.0 mg/kg/injection, schedule: Q01DX005 (ip), vehicle: saline 104 % of control and 100 % of control | dose: 120.0 mg/kg/injection, schedule: Q01DX005 (ip), vehicle: saline 92 % of control and 104 % of control | dose: 240.0 mg/kg/injection, schedule: Q01DX005 (ip), vehicle: saline 90 % of control and 108 % of control

S=C(N/N=C\c1nc2ccccc2c2ccccc12)Nc1ccc(Br)cc1
inactive: dose: 100.0 mg/kg/injection, schedule: Q04DX002 (ip), vehicle: Klucel (hydroxypropylcellulose) (HPC) 93 % of control | dose: 200.0 mg/kg/injection, schedule: Q04DX002 (ip), vehicle: Klucel (hydroxypropylcellulose) (HPC) 93 % of control | dose: 400.0 mg/kg/injection, schedule: Q04DX002 (ip), vehicle: Klucel (hydroxypropylcellulose) (HPC) 96 % of control

CC(=O)N1C=CC(=C2C=CN(C(C)=O)C=C2)C=C1
inactive: dose: 5.0 mg/kg/injection, schedule: Q01DX009 (ip), vehicle: saline 100 % of control | dose: 10.0 mg/kg/injection, schedule: Q01DX009 (ip), vehicle: saline 88 % of control | dose: 20.0 mg/kg/injection, schedule: Q01DX009 (ip), vehicle: saline 103 % of control

CCOC(=O)C1CCc2ccccc2N1 (stereo not given)
inactive: [1] 99 % of control | [2] 103 % of control | [3] 104 % of control

O=C(O)c1ccc(OCCOc2ccccc2)c(Cl)c1
inactive: [9] 98 % of control | [10] 95 % of control | [11] 93 % of control

Cn1c2ccccc2c(=Nc2ccc(S(=O)(=O)N=C(N)N)cc2)c2ccccc21
inactive: [1] 106 % of control | [2] 96 % of control

CCCCCCCCCCCC(=O)N(CCCC)CCCC
inactive: dose: 37.5 mg/kg/injection, schedule: Q01DX009 (ip), vehicle: Klucel (hydroxypropylcellulose) (HPC) 100 % of control | dose: 75.0 mg/kg/injection, schedule: Q01DX009 (ip), vehicle: Klucel (hydroxypropylcellulose) (HPC) 98 % of control | dose: 150.0 mg/kg/injection, schedule: Q01DX009 (ip), vehicle: Klucel (hydroxypropylcellulose) (HPC) 92 % of control

COC1=CC=C2Nc3nc(N)[nH]c(=O)c3SC2N1 (stereo not given)
inactive: [9] 99 % of control | [10] 90 % of control | [11] 97 % of control

COC(=O)C1=CO[C@@H](OC2OC(CO)C(O)C(O)C2O)[C@H]2[C@@H]1C=C[C@@]2(O)CO (stereo not given in full)
inactive: dose: 6.25 mg/kg/injection, schedule: Q01DX009 (ip), vehicle: Klucel (hydroxypropylcellulose) (HPC) 100 % of control | dose: 12.5 mg/kg/injection, schedule: Q01DX009 (ip), vehicle: Klucel (hydroxypropylcellulose) (HPC) 88 % of control | dose: 25.0 mg/kg/injection, schedule: Q01DX009 (ip), vehicle: Klucel (hydroxypropylcellulose) (HPC) 100 % of control | [4] 99 % of control | [5] 107 % of control

CC(C)(Oc1ccc(Cl)cc1)C(=O)NC1CC(C)(C)N(O)C(C)(C)C1
inactive: [9] 104 % of control | [10] 96 % of control | [11] 91 % of control
